This is an account of results in US20260294770A1, “FORMULATIONS OF NARINGENIN” (DEBUT BIOTECHNOLOGY, INC., priority 2023, published 2026).

For one series, the system named is MUCL1. The series is described as follows: Upregulation of gene expression and/or activity, 1% naringenin: MUCL1. An excerpt:
(§1) In certain embodiments, administration of a composition comprising naringenin leads to up-regulation of LCE5A, KRT77, ALOXE3, KRT1, HPGD, MUCL1, CASP14, WFDC12, KRT10, DNASE1L2, IL37, SERPINB12, HAL, UPK1A, CALML5, LCE2B, and/or MIR205. In certain embodiments, administration of a composition comprising naringenin leads to down-regulation of CCL11, CSF2, IL23A, IL11, BMP6, IL13RA2, C2CD4A, NR4A2, C2CD4B, FGF2, FARP4, GDF15, THBS1, HSPA1A, PTGS2, and/or DKK1. Tables 10 and 11 provide data for upregulation and downregulation respectively of certain genes after administration of compositions comprising 1% naringenin.

The subject of the next series is GDF15. The series is described as follows: Downregulation of gene expression and/or activity, 1% naringenin: GDF15.
Excerpt: as §1
Growth differentiation factor 15 (GDF15) plays a role in the inflammatory response. In certain embodiments, downregulation of GDF15 results in reduction in inflammation. In certain embodiments, the administration of composition comprising naringenin results in at least about 2 to about 10-fold downregulation of expression and/or activity of GDF15. In certain embodiments, the administration of composition comprising naringenin results in at least about five (5) fold downregulation of expression and/or activity of GDF15.

For a further series, the system named is FGF2. The series can be described thus: Downregulation of gene expression and/or activity, 1% naringenin: FGF2. The note with it: negative = downregulation.
Excerpt: as §1

For series [1], the system named is HaCaT immortalized keratinocytes. Particulars: 10 μM; cited from earlier work.
A further series concerns IL11. The series can be described thus: Downregulation of gene expression and/or activity, 1% naringenin: IL11.
Excerpt: as §1
Interleukin 11 (IL11) plays a role in the inflammatory pathway and in certain pathways that may be involved in cancer. In certain embodiments of the invention, downregulation of IL11 leads to an anti-inflammatory activity and/or anticancer activity. In certain embodiments, the administration of composition comprising naringenin results in at least about 10 to about 20-fold downregulation of expression and/or activity of IL11. In certain embodiments, the administration of composition comprising naringenin results in at least about ten (10) fold downregulation of expression and/or activity of IL11.

The subject of the next series is WFDC12. The series can be described thus: Upregulation of gene expression and/or activity, 1% naringenin: WFDC12.
Excerpt: as §1

For a further series, the system named is DKK1. The series is described as follows: Downregulation of gene expression and/or activity, 1% naringenin: DKK1. Particulars: negative = downregulation.
Excerpt: as §1

A further series relates to IL13RA2. The series is described as follows: Downregulation of gene expression and/or activity, 1% naringenin: IL13RA2.
Excerpt: as §1
Interleukin 13 receptor subunit alpha 2 (IL13RA2) plays a role in recovery after stressor caused inflammatory response. In certain embodiments, downregulation of IL13RA2 leads to improved recovery after inflammation caused by stressors. In certain embodiments, the administration of composition comprising naringenin results in at least about 5 to about 15-fold downregulation of expression and/or activity of IL13RA2. In certain embodiments, the administration of composition comprising naringenin results in at least about ten (10) fold downregulation of expression and/or activity of IL13RA2.

In the next series the test system is PTGS2. The series can be described thus: Downregulation of gene expression and/or activity, 1% naringenin: PTGS2.
Excerpt: as §1
Prostaglandin-endoperoxide synthase 2 (PTGS2) plays a role in the production of signaling molecules that are involved in the inflammatory response. For example, PTGS2 is involved in the conversion of arachidonic acid to prostaglandin H2, an important precursor of prostacyclin, which is expressed in inflammation. In certain embodiments, downregulation of PTGS2 leads to reduction in production of signaling molecules leading to inflammation. Thus, the downregulation of PTGS2 leads to reduced inflammation. In certain embodiments, the administration of composition comprising naringenin results in at least about 2 to about 10-fold downregulation of expression and/or activity of PTGS2. […]

The next series relates to IL23A. The series can be described thus: Downregulation of gene expression and/or activity, 1% naringenin: IL23A.
Excerpt: as §1
Interleukin 23A (1L23A) plays a role in the inflammatory pathway. In certain embodiments of the invention, downregulation of IL23A leads to an anti-inflammatory activity. In certain embodiments, the administration of composition comprising naringenin results in at least about 10 to about 20-fold downregulation of expression and/or activity of 1L23A. In certain embodiments, the administration of composition comprising naringenin results in at least about fifteen (15) fold downregulation of expression and/or activity of IL23A.

The subject of a further series is DNASE1L2. The series is described as follows: Upregulation of gene expression and/or activity, 1% naringenin: DNASE1L2.
Excerpt: as §1
Deoxyribonuclease-1-like 2 (DNASE1L2) plays a role in recycling of dying cells. Hair, nails, and the cornified layer of the epidermis, i.e. the stratum corneum, consist of cornified keratinocytes, also known as corneocytes. The process of cornification involves the cross-linking of structural proteins and leads to the high mechanical stability of corneocytes which, along with the formation of stable desmosomal links between cells, is essential for the resistance of epidermal structures to stress from the environment DNASE1L2 is a keratinocyte-specific DNase. DNASE1L2 breakdown of the nucleus in skin appendages and distinct epithelia whereas cornification of the interfollicular epidermis. […]

Another series has as its system UPK1A. The series can be described thus: Upregulation of gene expression and/or activity, 1% naringenin: UPK1A.
Excerpt: as §1
Uroplakin 1A (UPK1A) is involved in cell proliferation. The proteins in this family mediate signal transduction events that play a role in the regulation of cell development, activation, growth and motility. This encoded protein is found in the asymmetrical unit membrane (AUM) where it can complex with other transmembrane 4 superfamily proteins. UP1A may play a role in normal bladder epithelial physiology, possibly in regulating membrane permeability of superficial umbrella cells or in stabilizing the apical membrane through AUM/cytoskeletal interactions. In certain embodiments, compositions comprising naringenin leads to upregulation of UPK1A, which leads to increase cell proliferation, including the cells in the skin and the underlying tissues. […]

For the compound `O=C1C[C@@H](c2ccc(O)cc2)Oc2cc(O)cc(O)c21` [naringenin, (2S)-5,7-Dihydroxy-2-(4-hydroxyphenyl)-2,3-dihydro-4H-1-benzopyran-4-one], the “Fold-increase in expression and/or activity of MUCL1” value with MUCL1 worked out at 11 fold. Moreover, in the series with GDF15, the “fold downregulation in expression and/or activity of GDF15” value is given as approximately 6 fold. In addition, in the series on GDF15 (negative = downregulation), the “Fold-increase (downregulation table) GDF15” value was −6 fold. Also, the “Fold-increase (downregulation table) FGF2” value in the series on FGF2 was −7 fold. In addition, the “Protection from UVB-induced apoptosis” value in [1] is recorded as “protecting HaCaT immortalized keratinocytes from UVB-induced apoptosis”. In the series on IL11, the “fold downregulation in expression and/or activity of IL11” value is approximately 14 fold. Besides, the “Fold-increase in expression and/or activity of WFDC12” value with WFDC12 was 11 fold. Also, the “Fold-increase (downregulation table) DKK1” value with DKK1 is given as −5 fold. For the same compound, the “fold downregulation in expression and/or activity of IL13RA2” value with IL13RA2 is approximately 10 fold. For the same compound, the “Fold-increase (downregulation table) IL13RA2” value with IL13RA2 (negative = downregulation) was −10 fold. For the same compound, in the series on PTGS2, the “fold downregulation in expression and/or activity of PTGS2” value was approximately 6 fold. The “Fold-increase (downregulation table) PTGS2” value with PTGS2 (negative = downregulation) was −6 fold. In addition, the “fold downregulation in expression and/or activity of IL23A” value in the series on IL23A was approximately 18 fold. In addition, the “Fold-increase in expression and/or activity of DNASE1L2” value in the series with DNASE1L2 is approximately 9 fold. For the same compound, in the series on UPK1A, the “Fold-increase in expression and/or activity of UPK1A” value is on record as approximately 10 fold.
